This is an account of results in patent publication US9018383B2, “Acylamino-substituted cyclic carboxylic acid derivatives and their use as pharmaceuticals” (Sanofi, priority 2009, dated 2015).

Sequence of human Edg-2 receptor (Q92633 whole entry): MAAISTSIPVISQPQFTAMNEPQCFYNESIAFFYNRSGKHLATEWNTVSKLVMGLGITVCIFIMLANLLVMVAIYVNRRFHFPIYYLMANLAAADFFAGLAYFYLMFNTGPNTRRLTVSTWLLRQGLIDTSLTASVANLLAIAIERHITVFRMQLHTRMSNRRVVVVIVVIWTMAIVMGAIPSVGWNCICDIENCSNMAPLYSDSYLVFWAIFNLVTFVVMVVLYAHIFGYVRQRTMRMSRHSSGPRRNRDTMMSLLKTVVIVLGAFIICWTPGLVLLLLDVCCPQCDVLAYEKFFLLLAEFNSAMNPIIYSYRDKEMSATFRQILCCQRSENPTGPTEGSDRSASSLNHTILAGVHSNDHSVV

The assay concerns the target human Edg-2 receptor (Homo sapiens, UniProt Q92633). As to the kind of experiment: Determination of Edg-2 receptor inhibition by FLIPR measurements (LPA-mediated calcium liberation). The format is cell-based. The settings on record: CHO cells overexpressing human Edg-2 receptor, LPA 100 nM, fluo-4 calcium fluorescence; read-out: Inhibitory concentrations IC50 for inhibition of the Edg-2 receptor. The procedure, abridged: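 IC50 was derived from % inhibition of the baseline-corrected peak fluo-4 signal relative to DMSO, measured in triplicate. Compound was added ~5 min before 100 nM LPA (18:1) to human Edg-2–expressing CHO cells in pH 7.5 HBSS buffer with probenecid and HEPES, and fluorescence was monitored ~3 min.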
As for `COc1ccc(C(=O)NC2(C(=O)O)CCC(C(C)(C)C)CC2)cc1OCCc1cccc(C)c1` (stereo not drawn) [Example 366], the IC50 is 100 to 1000 nM.
Regarding `COc1ccc(C(=O)NC2(C(=O)O)CCCC(C)C2)cc1OCCc1cccc(C)c1` (stereo not drawn) [Example 367], the IC50 fell in the range of 100 to 1000 nM.
Turning to `COc1ccc(C(=O)NC2(C(=O)O)CC2)cc1OCCc1cccc(C)c1` [Example 368], the IC50 fell in the range of 100 to 1000 nM.
For `COc1ccc(C(=O)NC2(C(=O)O)CCC(C(F)(F)F)CC2)cc1OCCc1cccc(C)c1` (stereo not drawn) [Example 369], the IC50 is 100 to 1000 nM.
The result for `COc1ccc(C(=O)NC2(C(=O)O)CCC(C(C)C)CC2)cc1OCCc1cccc(C)c1` (stereo not drawn) [Example 370] reads below 100 nM; that for `COc1ccc(C(=O)NC2(C(=O)O)CCC(C(C)(C)C)CC2)cc1OCCc1cccc(C)c1` (stereo not drawn) [Example 371], 100 to 1000 nM; that for `COc1ccc(C(=O)NC2(C(=O)O)CCCC(C)C2)cc1OCCc1cccc(C)c1` (stereo not drawn) [Example 372], 100 to 1000 nM.
The figure for `COc1ccc(C(=O)NC2(C(=O)O)CCC(C)C2)cc1OCCc1cccc(C)c1` (stereo not drawn) [Example 373] is 100 to 1000 nM.
The result for `COc1ccc(C(=O)NC2(C(=O)O)CCC(OC)CC2)cc1OCCc1cccc(C)c1` (stereo not drawn) [Example 374] reads below 100 nM; that for `COc1ncc(C(=O)N[C@]2(C(=O)O)CC[C@H](C(F)(F)F)CC2)cc1-c1cc(F)c(F)c(F)c1` [Example 375], below 100 nM.
As to `COc1ncc(C(=O)N[C@]2(C(=O)O)CC[C@H](C(F)(F)F)CC2)cc1-c1cccc(C(F)(F)F)c1` [Example 376], the IC50 is below 100 nM.
With `COc1ncc(C(=O)N[C@]2(C(=O)O)CC[C@H](C(F)(F)F)CC2)cc1-c1cccc(C(F)(F)F)c1F` [Example 377], the IC50 is below 100 nM.
The result for `COc1ncc(C(=O)N[C@]2(C(=O)O)CC[C@H](C(F)(F)F)CC2)cc1-c1cccc(Cl)c1Cl` [Example 378] reads below 100 nM; that for `COc1ncc(C(=O)N[C@]2(C(=O)O)CC[C@H](C(F)(F)F)CC2)cc1-c1cccc(OC(F)(F)F)c1` [Example 379], below 100 nM.
The figure for `COc1ncc(C(=O)N[C@]2(C(=O)O)CC[C@H](C(F)(F)F)CC2)cc1-c1cc(Cl)cc(C(F)(F)F)c1` [Example 380] is below 100 nM; for `CC[C@H]1CC[C@](NC(=O)c2cc(F)c(OCCO)c(-c3ccc(OC)c(Cl)c3)c2)(C(=O)O)CC1` [Example 381] it is below 100 nM; for `CC[C@H]1CC[C@](NC(=O)c2cc(F)c(OCCO)c(-c3cccc(OC(F)(F)F)c3)c2)(C(=O)O)CC1` [Example 382] it is below 100 nM.
The result for `CC[C@H]1CC[C@](NC(=O)c2cc(F)c(OCCO)c(-c3ccc(F)c(F)c3)c2)(C(=O)O)CC1` [Example 384] reads below 100 nM; that for `CC[C@H]1CC[C@](NC(=O)c2cc(F)c(OCCO)c(-c3cc(F)cc(F)c3)c2)(C(=O)O)CC1` [Example 385], below 100 nM; that for `CC[C@H]1CC[C@@](NC(=O)c2ccc(OCCO)c(-c3cccc(C(F)(F)F)c3)c2)(C(=O)O)CC1` [Example 386, trans-4-Ethyl-1-{[6-(2-hydroxy-ethoxy)-3′-trifluoromethyl-biphenyl-3-carbonyl]-amino}-cyclohexanecarboxylic acid], below 100 nM.
For the compound `COc1c(F)cc(C(=O)N[C@]2(C(=O)O)CC[C@@H](C)CC2)cc1OCCc1cccc(CCO)c1` [Example 392, trans-1-(3-Fluoro-5-{2-[3-(2-hydroxy-ethyl)-phenyl]-ethoxy}-4-methoxy-benzoylamino)-4-methyl-cyclohexanecarboxylic acid], the IC50 is below 100 nM.
The figure for `COc1c(F)cc(C(=O)NC2(C(=O)O)CCCCCC2)cc1OCCc1cccc(CCO)c1` [Example 393, 1-(3-Fluoro-5-{2-[3-(2-hydroxy-ethyl)-phenyl]-ethoxy}-4-methoxy-benzoylamino)-cycloheptanecarboxylic acid] is below 100 nM; for `CC[C@H]1CC[C@@](NC(=O)c2cc(F)c(OC)c(OCCc3cccc(CCO)c3)c2)(C(=O)O)CC1` [Example 394, trans-4-Ethyl-1-(3-fluoro-5-{2-[3-(2-hydroxy-ethyl)-phenyl]-ethoxy}-4-methoxy-benzoylamino)-cyclohexanecarboxylic acid] it is below 100 nM.
The result for `CC[C@H]1CC[C@@](NC(=O)c2cnc(OC)c(OCCc3cccc(C)c3)c2)(C(=O)O)CC1` [Example 395, trans-4-Ethyl-1-{[6-methoxy-5-(2-m-tolyl-ethoxy)-pyridine-3-carbonyl]-amino}-cyclohexanecarboxylic acid] reads below 100 nM.
As for `CC[C@H]1CC[C@](NC(=O)c2cnc(OC)c(OCCc3cccc(C)c3)c2)(C(=O)O)CC1` [Example 396, cis-4-Ethyl-1-{[6-methoxy-5-(2-m-tolyl-ethoxy)-pyridine-3-carbonyl]-amino}-cyclohexanecarboxylic acid], the IC50 was below 100 nM.
The figure for `CC[C@H]1CC[C@@](NC(=O)c2cnc(OC)c(OCCc3cccc(Cl)c3)c2)(C(=O)O)CC1` [Example 397, trans-1-({5-[2-(3-Chloro-phenyl)-ethoxy]-6-methoxy-pyridine-3-carbonyl}-amino)-4-ethyl-cyclohexanecarboxylic acid] is below 100 nM.
`CC[C@H]1CC[C@@](NC(=O)c2cnc(OC)c(OCCc3cccc(OC(F)(F)F)c3)c2)(C(=O)O)CC1` [Example 398, trans-4-Ethyl-1-({6-methoxy-5-[2-(3-trifluoromethoxy-phenyl)-ethoxy]-pyridine-3-carbonyl}-amino)-cyclohexanecarboxylic acid]: the IC50 is below 100 nM.
The result for `CC[C@H]1CC[C@](NC(=O)c2cnc(OC)c(OCCc3cccc(OC(F)(F)F)c3)c2)(C(=O)O)CC1` [Example 399, cis-4-Ethyl-1-({6-methoxy-5-[2-(3-trifluoromethoxy-phenyl)-ethoxy]-pyridine-3-carbonyl}-amino)-cyclohexanecarboxylic acid] reads below 100 nM; that for `COc1ncc(C(=O)N[C@]2(C(=O)O)CC[C@H](C)CC2)cc1OCCc1ccccc1` [Example 400, cis-1-{[6-Methoxy-5-(2-phenyl-ethoxy)-pyridine-3-carbonyl]-amino}-4-methyl-cyclohexanecarboxylic acid], below 100 nM; that for `COc1ncc(C(=O)NC2(C(=O)O)CCCCCC2)cc1OCCc1cccc(Cl)c1` [Example 401, 1-({5-[2-(3-Chloro-phenyl)-ethoxy]-6-methoxy-pyridine-3-carbonyl}-amino)-cycloheptanecarboxylic acid], below 100 nM.
The figure for `COc1ncc(C(=O)N[C@]2(C(=O)O)CC[C@H](C(F)(F)F)CC2)cc1OCCc1cccc(C)c1` [Example 402, cis-1-{[6-Methoxy-5-(2-m-tolyl-ethoxy)-pyridine-3-carbonyl]-amino}-4-trifluoromethyl-cyclohexanecarboxylic acid] is below 100 nM; for `CC[C@H]1CC[C@](NC(=O)c2ccc(OC)c(OCCc3cccc(OC(F)(F)F)c3)c2)(C(=O)O)CC1` [Example 403, cis-4-Ethyl-1-{4-methoxy-3-[2-(3-trifluoromethoxy-phenyl)-ethoxy]-benzoylamino}-cyclohexanecarboxylic acid] it is below 100 nM.
`COc1ccc(C(=O)N[C@]2(C(=O)O)CC[C@H](C)CC2)cc1OCCc1cc(Cl)ccc1F` [Example 404, cis-1-{3-[2-(5-Chloro-2-fluoro-phenyl)-ethoxy]-4-methoxy-benzoylamino}-4-methyl-cyclohexanecarboxylic acid]: the IC50 is below 100 nM.
The figure for `COc1ccc(C(=O)N[C@]2(C(=O)O)CC[C@H](C)CC2)cc1OCCc1cc(OC(F)(F)F)ccc1F` [Example 405, cis-1-{3-[2-(2-Fluoro-5-trifluoromethoxy-phenyl)-ethoxy]-4-methoxy-benzoylamino}-4-methyl-cyclohexanecarboxylic acid] is below 100 nM.
Turning to `COc1ccc(C(=O)N[C@]2(C(=O)O)CC[C@H](C)CC2)cc1OCCc1ccccc1` [Example 406, cis-1-(4-Methoxy-3-phenethyloxy-benzoylamino)-4-methyl-cyclohexanecarboxylic acid], the IC50 lay within 100 to 1000 nM.
The result for `CC[C@H]1CC[C@](NC(=O)c2cnc(OC)c(-c3ccc(F)cc3)c2)(C(=O)O)CC1` [Example 407] reads below 100 nM.
Consider `CC[C@H]1CC[C@@](NC(=O)c2cnc(OC)c(-c3ccc(Cl)c(C(F)(F)F)c3)c2)(C(=O)O)CC1` [Example 408], for which the IC50 lay within 100 to 1000 nM.
The figure for `CC[C@H]1CC[C@](NC(=O)c2cnc(OC)c(-c3cccc(F)c3)c2)(C(=O)O)CC1` [Example 409] is below 100 nM.
Turning to `COc1ncc(C(=O)N[C@]2(C(=O)O)CC[C@H](C)CC2)cc1-c1cc(F)cc(F)c1` [Example 410], the IC50 is below 100 nM.
The result for `CC[C@H]1CC[C@](NC(=O)c2cnc(OC)c(-c3ccc(OC)c(F)c3)c2)(C(=O)O)CC1` [Example 411] reads below 100 nM.
The figure for `CC[C@H]1CC[C@@](NC(=O)c2cnc(OC)c(-c3ccc(OC)c(F)c3)c2)(C(=O)O)CC1` [Example 412] is below 100 nM.
The figure for `CC[C@H]1CC[C@](NC(=O)c2cnc(OCCO)c(-c3cccc(C(F)(F)F)c3)c2)(C(=O)O)CC1` [Example 413, 4-Ethyl-1-{[6-(2-hydroxy-ethoxy)-5-(3-trifluoromethyl-phenyl)-pyridine-3-carbonyl]-amino}-cyclohexanecarboxylic acid] is below 100 nM; for `CC[C@H]1CC[C@](NC(=O)c2cnc(OCCO)c(-c3ccc(F)c(F)c3)c2)(C(=O)O)CC1` [Example 414] it is below 100 nM; for `CC[C@H]1CC[C@](NC(=O)c2cnc(OCCO)c(-c3cc(F)cc(F)c3)c2)(C(=O)O)CC1` [Example 415] it is below 100 nM.
On to `CC[C@H]1CC[C@](NC(=O)c2cnc(OCCO)c(-c3cccc(OC(F)(F)F)c3)c2)(C(=O)O)CC1` [Example 416], for which the IC50 was below 100 nM.
